This assay relates to IL-1β production in PMA-differentiated THP-1 cells. Kind of assay: IL-1β production in PMA-differentiated THP-1 cells stimulated with gramicidin (hTHP-1 assay, 2% fetal bovine serum; Procedures 1-3). Format: cell-based, human. The note with it: Table B3; hTHP-1 assay containing 2% fetal bovine serum, gramicidin stimulation, IL-1β readout; read-out: hTHP-1 IC50. In short, it runs like this: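 IL-1β released into supernatants was read by HTRF after 2 h gramicidin (5 μM) challenge. Before challenge, compounds (3-fold dilutions, top 100 μM, 0.37% DMSO) were given 1 h on THP-1 cells differentiated with PMA (20 ng/ml, 16-18 h) and held in 2% FBS medium.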

What is called IC50 is the concentration that gives 50% inhibition.

A value given as a limit tells only on which side of the number the result lay.

Turning to `NS(=O)(=NC(=O)Nc1c2c(cc3c1CCC3)CCC2)c1ccc([C@@H]2CCCN2)s1` (single isomer, unassigned) [Example 822, (S) or (R) -N′-((1,2,3,5,6,7-hexahydro-s-indacen-4-yl)carbamoyl)-5-((S)-pyrrolidin-2-yl)thiophene-2-sulfonimidamide], the IC50 fell in the range of 1000 to 5000 nM.
To `NS(=O)(=NC(=O)Nc1c2c(cc3c1CCC3)CCC2)c1ccc([C@H]2CCCN2)s1` (single isomer, unassigned) [Example 823, (R) or (S) -N′-((1,2,3,5,6,7-hexahydro-s-indacen-4-yl)carbamoyl)-5-((R)-pyriolidin-2-yl)thiophene-2-sulfonimidamide] belongs 200 to 1000 nM; to `NS(=O)(=NC(=O)Nc1c2c(cc3c1CCC3)CCC2)c1ccc([C@H]2CCCN2)s1` (single isomer, unassigned) [Example 824, (S) or (R) -N′-((1,2,3,5,6,7-hexahydro-s-indacen-4-yl)carbamoyl)-5-((R)-pyrrolidin-2-yl)thiophene-2-sulfommidamide], 5000 to 30000 nM; to `CCn1ccc(S(N)(=O)=NC(=O)Nc2c3c(cc4c2CC4)CCC3)n1` (single isomer, unassigned) [Example 825], 40 to 200 nM.
To `CCn1ccc(S(N)(=O)=NC(=O)Nc2c3c(cc4c2CC4)CCC3)n1` (single isomer, unassigned) [Example 826, (S) or (R) -1-ethyl-N′-((2,4,5,6-tetrahydro-1H-cyclobuta[f]inden-3-yl)carbamoyl)-1H-pyrazole-3-sulfonimidamide] belongs 1000 to 5000 nM; to `CC(C)(O)c1ccnc(S(N)(=O)=NC(=O)Nc2c3c(c(C#N)c4c2CCC4)CCC3)c1` (single isomer, unassigned) [Example 827, (R) or (S)-N′-((8-cyano-1,2,3,5,6,7-hexahydro-s-indacen-4-yl)carbamoyl)-4-(2-hydroxypropan-2-yl)pyridine-2-sulfonimidamide], 200 to 1000 nM.
As for `CC(C)(O)c1ccnc(S(N)(=O)=NC(=O)Nc2c3c(c(C#N)c4c2CCC4)CCC3)c1` (single isomer, unassigned) [Example 828, (S) or (R)-N′-((8-cyano-1,2,3,5,6,7-hexahydro-s-indacen-4-yl)carbamoyl)-4-(2-hydroxypropan-2-yl)pyridine-2-sulfonimidamide], the figure is 1000 to 5000 nM.
`CC(C)(CO)c1ncc(S(N)(=O)=NC(=O)Nc2c3c(c(C#N)c4c2CCC4)CCC3)s1` (single isomer, unassigned) [Example 829, (S) or (R)-N′-((8-cyano-1,2,3,5,6,7-hexahydro-s-indacen-4-yl)carbamoyl)-2-(1-hydroxy-2-methylpropan-2-yl)thiazole-5-sulfonimidamide]: the concentration for half-maximal inhibition (IC50) lay in the range of 1000 to 5000 nM.
With `CC(C)(CO)c1ncc(S(N)(=O)=NC(=O)Nc2c3c(c(C#N)c4c2CCC4)CCC3)s1` (single isomer, unassigned) [Example 830, (R) or (S)-N′-((8-cyano-1,2,3,5,6,7-hexahydro-s-indacen-4-yl)carbamoyl)-2-(1-hydroxy-2-methylpropan-2-yl)thiazole-5-sulfonimidamide], the IC50 lay within 40 to 200 nM.
As for `CC(C)(O)c1ccc(S(N)(=O)=NC(=O)Nc2c3c(cc4c2C(=O)CC4)CCC3)cn1` (single isomer, unassigned) [Example 831, (S) or (R)-6-(2-hydroxypropan-2-yl)-N′-((3-oxo-1,2,3,5,6,7-hexahydro-s-indacen-4-yl)carbamoyl)pyridine-3-sulfonimidamide], the figure is greater than 30000 nM.
As for `CC(C)(O)c1ccc(S(N)(=O)=NC(=O)Nc2c3c(cc4c2C(=O)CC4)CCC3)cn1` (single isomer, unassigned) [Example 832, (R) or (S)-6-(2-hydroxypropan-2-yl)-N′-((3-oxo-1,2,3,5,6,7-hexahydro-s-indacen-4-yl)carbamoyl)pyridine-3-sulfonimidamide], the figure is 200 to 1000 nM.
To `NS(=O)(=NC(=O)Nc1c2c(cc3c1CC3)CCC2)c1sc2c(c1F)CNCC2` (single isomer, unassigned) [Example 833, (R) or (S)-3-fluoro-N′-((2,4,5,6-tetrahydro-1H-cyclobuta[f]inden-3-yl)carbamoyl)-4,5,6,7-tetrahydrothieno[3,2-c]pyridine-2-sulfonimidamide] belongs 8 to 40 nM.
With `NS(=O)(=NC(=O)Nc1c2c(cc3c1CC3)CCC2)c1sc2c(c1F)CNCC2` (single isomer, unassigned) [Example 834, (S) or (R)-3-fluoro-N′-((2,4,5,6-tetrahydro-1H-cyclobuta[f]inden-3-yl)carbamoyl)-4,5,6,7-tetrahydrothieno[3,2-c]pyridine-2-sulfonimidamide], the concentration for half-maximal inhibition (IC50) was in the range of 200 to 1000 nM.
As for `CN1CCc2sc(S(N)(=O)=NC(=O)Nc3c4c(cc5c3CC5)CCC4)c(F)c2C1` (single isomer, unassigned) [Example 835, (R) or (S)-3-fluoro-5-methyl-N′-((2,4,5,6-tetrahydro-1H-cyclobuta[f]inden-3-yl)carbamoyl)-4,5,6,7-tetrahydrothieno[3,2-c]pyridine-2-sulfonimidamide], the figure is 40 to 200 nM; as for `CN1CCc2sc(S(N)(=O)=NC(=O)Nc3c4c(cc5c3CC5)CCC4)c(F)c2C1` (single isomer, unassigned) [Example 836, (S) or (R)-3-fluoro-5-methyl-N′-((2,4,5,6-tetrahydro-1H-cyclobuta[f]inden-3-yl)carbamoyl)-4,5,6,7-tetrahydrothieno[3,2-c]pyridine-2-sulfonimidamide], 1000 to 5000 nM.
As for `CNCc1csc(S(N)(=O)=NC(=O)Nc2c3c(cc4c2CC4)CCC3)c1` (single isomer, unassigned) [Example 837, (R) or (S)-4-((methylamino)methyl)-N′-((2,4,5,6-tetrahydro-1H-cyclobuta[f]inden-3-yl)carbamoyl)thiophene-2-sulfonimidamide], the figure is 40 to 200 nM; as for `CNCc1csc(S(N)(=O)=NC(=O)Nc2c3c(cc4c2CC4)CCC3)c1` (single isomer, unassigned) [Example 838, (S) or (R)-4-((methylamino)methyl)-N′-((2,4,5,6-tetrahydro-1H-cyclobuta[f]inden-3-yl)carbamoyl)thiophene-2-sulfonimidamide], 200 to 1000 nM; as for `NS(=O)(=NC(=O)Nc1c2c(cc3c1CC3)CCC2)c1nn(C(F)F)cc1F` (single isomer, unassigned) [Example 839, (R) or (S)-1-(difluoromethyl)-4-fluoro-N′-((2,4,5,6-tetrahydro-1H-cyclobuta[f]inden-3-yl)carbamoyl)-1H-pyrazole-3-sulfonimidamide], 40 to 200 nM.
To `NS(=O)(=NC(=O)Nc1c2c(cc3c1CC3)CCC2)c1nn(C(F)F)cc1F` (single isomer, unassigned) [Example 840, (S) or (R)-1-(difluoromethyl)-4-fluoro-N′-((2,4,5,6-tetrahydro-1H-cyclobuta[f]inden-3-yl)carbamoyl)-1H-pyrazole-3-sulfonimidamide] belongs 1000 to 5000 nM.
Regarding `NS(=O)(=NC(=O)Nc1c2c(cc3c1CC3)CCC2)c1sc2c(c1F)COCC2` (single isomer, unassigned) [Example 841, (R) or (S)-3-fluoro-N′-((2,4,5,6-tetrahydro-1H-cyclobuta[f]inden-3-yl)carbamoyl)-6,7-dihydro-4H-thieno[3,2-c]pyran-2-sulfonimidamide], the half-inhibitory concentration (IC50) was in the range of 200 to 1000 nM.
As for `NS(=O)(=NC(=O)Nc1c2c(cc3c1CC3)CCC2)c1sc2c(c1F)COCC2` (single isomer, unassigned) [Example 842, (S) or (R)-3-fluoro-N′-((2,4,5,6-tetrahydro-1H-cyclobuta[f]inden-3-yl)carbamoyl)-6,7-dihydro-4H-thieno[3,2-c]pyran-2-sulfonimidamide], the figure is 5000 to 30000 nM.
To `NS(=O)(=NC(=O)Nc1c2c(cc3c1CC3)CCC2)c1sc(CN2CCC2)cc1F` (single isomer, unassigned) [Example 843, (R) or (S)-5-(azetidin-1-ylmethyl)-3-fluoro-N′-((2,4,5,6-tetrahydro-1H-cyclobuta[f]inden-3-yl)carbamoyl)thiophene-2-sulfonimidamide] belongs 40 to 200 nM; to `NS(=O)(=NC(=O)Nc1c2c(cc3c1CC3)CCC2)c1sc(CN2CCC2)cc1F` (single isomer, unassigned) [Example 844, (S) or (R)-5-(azetidin-1-ylmethyl)-3-fluoro-N′-((2,4,5,6-tetrahydro-1H-cyclobuta[f]inden-3-yl)carbamoyl)thiophene-2-sulfonimidamide], 1000 to 5000 nM; to `CC(NC1CCC1)c1ccc(S(N)(=O)=NC(=O)Nc2c3c(cc4c2CC4)CCC3)c(F)c1` (single isomer, unassigned) [Example 845, (R/S, R)-4-(1-(cyclobutylamino)ethyl)-2-fluoro-N′-((2,4,5,6-tetrahydro-1H-cyclobuta[f]inden-3-yl)carbamoyl)benzenesulfonimidamide], 200 to 1000 nM.
As for `CC(NC1CCC1)c1ccc(S(N)(=O)=NC(=O)Nc2c3c(cc4c2CC4)CCC3)c(F)c1` (single isomer, unassigned) [Example 847, (R, R) or (S, R) -4-(1-(cyclobutylamino)ethyl)-2-fluoro-N′-((2,4,5,6-tetrahydro-1H-cyclobuta[f]inden-3-yl)carbamoyl)benzenesulfonimidamide], the figure is 200 to 1000 nM; as for `CC(NC1CCC1)c1ccc(S(N)(=O)=NC(=O)Nc2c3c(cc4c2CC4)CCC3)c(F)c1` (single isomer, unassigned) [Example 848, (S, R) or (R, R) -4-(1-(cyclobutylamino)ethyl)-2-fluoro-N′-((2,4,5,6-tetrahydro-1H-cyclobula[f]inden-3-yl)carbamoyl)benzenesulfonimidamide], 200 to 1000 nM.
